The record followed here is ChEMBL document CHEMBL5696442, “Discovery of type II inhibitors of TGFβ-activated kinase 1 (TAK1) and mitogen-activated protein kinase kinase kinase kinase 2 (MAP4K2)” (J Med Chem, 2015).

The target in experiment [1] is Uncharacterized serine/threonine-protein kinase SBK3 (Homo sapiens) (UniProt P0C264). Description: Inhibition of SgK110 (unknown origin) at 1 uM by Ambit Kinomescan binding assay relative to control.
The target in experiment [2] is Serine/threonine-protein kinase MARK2 (Homo sapiens) (UniProt Q7KZI7). As to the kind of experiment: Inhibition of MARK2 Lys2 labeling site harbouring DLKAENLLLDADMNIK in human A-375 cells at 0.5 uM by KiNativ Profiling analysis relative to control. It is filed as cell-based.
For experiment [3], the target named is Serine/threonine-protein kinase 16 (Homo sapiens) (UniProt O75716). Description: Inhibition of MPSK1 Lys2 labeling site in human A-375 cells at 0.5 uM by KiNativ Profiling analysis relative to control. It counts as cell-based.
The target of experiment [4] is Tyrosine-protein kinase Yes (Homo sapiens) (UniProt P07947). As to the kind of experiment: Inhibition of YES ACT labeling site in human A-375 cells at 0.05 uM by KiNativ Profiling analysis relative to control. It is filed as cell-based.
Experiment [5] addresses Serine/threonine-protein kinase VRK2 (Homo sapiens) (UniProt Q86Y07). Description: Inhibition of VRK2 Lys2 labeling site in human A-375 cells at 0.05 uM by KiNativ Profiling analysis relative to control. It counts as cell-based.
Experiment [6] deals with Proto-oncogene tyrosine-protein kinase receptor Ret (Homo sapiens) (UniProt P07949). As to the kind of experiment: Inhibition of RET (unknown origin) at 1 uM by Ambit Kinomescan binding assay relative to control; values are per cent of control.
Experiment [7] addresses Tyrosine-protein kinase Yes (Homo sapiens) (UniProt P07947). As to the kind of experiment: Inhibition of YES (unknown origin) at 1 uM by Ambit Kinomescan binding assay relative to control; values are per cent of control.
Experiment [8] addresses Mitogen-activated protein kinase kinase kinase 19 (Homo sapiens) (UniProt Q56UN5). Description: Inhibition of YSK4 (unknown origin) at 1 uM by Ambit Kinomescan binding assay relative to control; values are per cent of control.
For experiment [9], the target named is Cyclin-dependent kinase-like 2 (Homo sapiens) (UniProt Q92772). Description: Inhibition of CDKL2 (unknown origin) at 10 uM by Ambit Kinomescan binding assay relative to control.
Experiment [10] deals with Serine/threonine-protein kinase 17A (Homo sapiens) (UniProt Q9UEE5). Description: Inhibition of DRAK1 (unknown origin) at 10 uM by Ambit Kinomescan binding assay.
The target of experiment [11] is Cyclin-G-associated kinase (Homo sapiens) (UniProt O14976). As to the kind of experiment: Inhibition of GAK (unknown origin) at 10 uM by Ambit Kinomescan binding assay relative to control.
The target in experiment [12] is SRSF protein kinase 3 (Homo sapiens) (UniProt Q9UPE1). As to the kind of experiment: Inhibition of SRPK3 (unknown origin) at 10 uM by Ambit Kinomescan binding assay.
Experiment [13] concerns the target Cyclin-dependent kinase 8/19 (Homo sapiens) (UniProt P49336+Q9BWU1). Description: Inhibition of CDK8/11 K2 labeling site in human Huh-7 cells at 10 uM by KiNativ Profiling analysis relative to control. It is filed as cell-based.
Experiment [14] has as its target STE20-like serine/threonine-protein kinase (Homo sapiens) (UniProt Q9H2G2). As to the kind of experiment: Inhibition of SLK K1 labeling site in human Huh-7 cells at 1 uM by KiNativ Profiling analysis relative to control. It is filed as cell-based.
The target in experiment [15] is Tyrosine-protein kinase Yes (Homo sapiens) (UniProt P07947). Description: Inhibition of YES (unknown origin) at 10 uM by Ambit Kinomescan binding assay relative to control; values are per cent of control.
The target of experiment [16] is NT-3 growth factor receptor (Homo sapiens) (UniProt Q16288). Description: Inhibition of TRKC (unknown origin) at 10 uM by Ambit Kinomescan binding assay relative to control; values are per cent of control.
For experiment [17], the target named is T1, Mitogen-activated protein kinase kinase kinase 2 (Homo sapiens) (UniProt Q9Y2U5).
T1 sequence (whole entry): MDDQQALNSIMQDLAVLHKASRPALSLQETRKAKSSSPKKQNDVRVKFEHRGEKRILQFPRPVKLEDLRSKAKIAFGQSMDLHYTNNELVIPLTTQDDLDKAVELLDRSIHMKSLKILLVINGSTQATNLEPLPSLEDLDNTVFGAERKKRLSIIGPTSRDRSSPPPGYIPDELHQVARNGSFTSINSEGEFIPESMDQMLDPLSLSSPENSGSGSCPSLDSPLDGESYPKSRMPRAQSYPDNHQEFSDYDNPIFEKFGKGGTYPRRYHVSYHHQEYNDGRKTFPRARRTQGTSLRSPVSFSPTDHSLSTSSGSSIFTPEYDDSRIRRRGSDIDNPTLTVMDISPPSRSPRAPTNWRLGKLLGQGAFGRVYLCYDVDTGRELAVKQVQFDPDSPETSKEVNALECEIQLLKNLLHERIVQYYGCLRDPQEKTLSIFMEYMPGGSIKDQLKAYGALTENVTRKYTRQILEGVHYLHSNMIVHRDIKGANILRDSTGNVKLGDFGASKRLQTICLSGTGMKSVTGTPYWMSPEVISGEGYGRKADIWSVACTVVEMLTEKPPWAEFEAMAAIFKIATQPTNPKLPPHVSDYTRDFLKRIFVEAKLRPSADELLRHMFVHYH
As to the kind of experiment: Inhibition of MAP3K2 Lys1 labeling site in human Huh-7 cell lysate at 1 uM by KiNativ Profiling analysis relative to control. It is filed as subcellular.

For experiment [18], the target named is Phosphatidylinositol 4-kinase beta (Homo sapiens) (UniProt Q9UBF8). Description: Inhibition of PI4KB ATP labeling site harbouring VPHTQAVVLNSKDKAPYLIYVEVLECENFDTTSVPAR in human Huh-7 cell lysate at 1 uM by KiNativ Profiling analysis relative to control. It counts as subcellular.
The target of experiment [19] is Serine/threonine-protein kinase PLK1 (Homo sapiens) (UniProt P53350). Description: Inhibition of PLK1 Lys2 labeling site harbouring DLKLGNLFLNEDLEVK in human Huh-7 cell lysate at 1 uM by KiNativ Profiling analysis relative to control. It is filed as subcellular.
The target in experiment [20] is Serine/threonine-protein kinase WNK1 (Homo sapiens) (UniProt Q9H4A3). As to the kind of experiment: Inhibition of Wnk1 Lys2 labeling site in human Huh-7 cells at 1 uM by KiNativ Profiling analysis relative to control. It counts as cell-based.

Activity calls are given as the source filed them. The rule behind the calls is not given here.

Chain of Tyrosine-protein kinase Yes (Homo sapiens) (P07947 2-543 limits assumed): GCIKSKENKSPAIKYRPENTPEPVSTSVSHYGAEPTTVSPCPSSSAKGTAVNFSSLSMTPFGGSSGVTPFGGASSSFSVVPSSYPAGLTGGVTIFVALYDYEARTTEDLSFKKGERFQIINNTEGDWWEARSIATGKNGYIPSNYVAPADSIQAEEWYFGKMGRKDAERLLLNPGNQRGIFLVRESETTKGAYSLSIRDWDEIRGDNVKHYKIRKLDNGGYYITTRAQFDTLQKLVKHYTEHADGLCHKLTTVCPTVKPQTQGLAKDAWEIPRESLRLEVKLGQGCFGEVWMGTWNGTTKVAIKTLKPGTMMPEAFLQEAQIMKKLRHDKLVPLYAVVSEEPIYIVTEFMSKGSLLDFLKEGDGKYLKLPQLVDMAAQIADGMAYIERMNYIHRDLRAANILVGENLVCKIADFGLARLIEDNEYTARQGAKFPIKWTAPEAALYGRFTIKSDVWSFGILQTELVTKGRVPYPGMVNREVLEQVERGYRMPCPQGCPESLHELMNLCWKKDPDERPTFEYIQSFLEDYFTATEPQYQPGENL
Chain of Uncharacterized serine/threonine-protein kinase SBK3 (Homo sapiens) (P0C264 whole entry): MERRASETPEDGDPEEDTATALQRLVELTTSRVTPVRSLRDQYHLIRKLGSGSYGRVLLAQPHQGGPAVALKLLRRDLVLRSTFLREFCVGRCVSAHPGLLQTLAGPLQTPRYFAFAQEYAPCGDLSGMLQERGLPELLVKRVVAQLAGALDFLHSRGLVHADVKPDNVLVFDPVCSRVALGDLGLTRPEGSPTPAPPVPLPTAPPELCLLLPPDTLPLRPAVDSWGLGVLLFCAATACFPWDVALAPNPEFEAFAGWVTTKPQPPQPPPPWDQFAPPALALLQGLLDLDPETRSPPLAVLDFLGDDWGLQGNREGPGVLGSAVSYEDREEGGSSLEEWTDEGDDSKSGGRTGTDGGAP
Chain of Serine/threonine-protein kinase 17A (Homo sapiens) (Q9UEE5 whole entry): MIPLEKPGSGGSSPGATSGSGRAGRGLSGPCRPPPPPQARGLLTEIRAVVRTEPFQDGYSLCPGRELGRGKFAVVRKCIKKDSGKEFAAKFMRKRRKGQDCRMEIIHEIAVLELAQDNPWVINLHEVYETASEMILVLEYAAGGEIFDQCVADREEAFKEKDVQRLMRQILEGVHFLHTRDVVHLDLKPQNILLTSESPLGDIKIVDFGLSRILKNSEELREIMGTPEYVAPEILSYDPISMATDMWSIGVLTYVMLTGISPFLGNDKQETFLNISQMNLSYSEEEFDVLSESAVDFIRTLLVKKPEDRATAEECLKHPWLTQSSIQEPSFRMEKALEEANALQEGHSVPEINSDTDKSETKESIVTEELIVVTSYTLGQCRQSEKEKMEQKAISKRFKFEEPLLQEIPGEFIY
Chain of Serine/threonine-protein kinase VRK2 (Homo sapiens) (Q86Y07 whole entry): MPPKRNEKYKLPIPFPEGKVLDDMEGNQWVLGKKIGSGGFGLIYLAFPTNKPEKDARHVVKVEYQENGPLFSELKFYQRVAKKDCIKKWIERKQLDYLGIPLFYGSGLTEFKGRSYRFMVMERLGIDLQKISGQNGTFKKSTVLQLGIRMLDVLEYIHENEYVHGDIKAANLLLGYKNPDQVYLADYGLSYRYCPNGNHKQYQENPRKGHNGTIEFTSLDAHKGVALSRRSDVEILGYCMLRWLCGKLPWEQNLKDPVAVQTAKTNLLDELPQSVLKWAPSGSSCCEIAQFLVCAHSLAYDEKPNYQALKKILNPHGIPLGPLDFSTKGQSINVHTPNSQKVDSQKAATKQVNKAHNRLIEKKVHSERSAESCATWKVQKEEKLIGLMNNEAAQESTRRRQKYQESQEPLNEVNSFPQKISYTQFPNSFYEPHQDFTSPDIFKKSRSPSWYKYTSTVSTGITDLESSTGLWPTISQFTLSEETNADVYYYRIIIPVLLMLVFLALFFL
Chain of Cyclin-G-associated kinase (Homo sapiens) (O14976 whole entry): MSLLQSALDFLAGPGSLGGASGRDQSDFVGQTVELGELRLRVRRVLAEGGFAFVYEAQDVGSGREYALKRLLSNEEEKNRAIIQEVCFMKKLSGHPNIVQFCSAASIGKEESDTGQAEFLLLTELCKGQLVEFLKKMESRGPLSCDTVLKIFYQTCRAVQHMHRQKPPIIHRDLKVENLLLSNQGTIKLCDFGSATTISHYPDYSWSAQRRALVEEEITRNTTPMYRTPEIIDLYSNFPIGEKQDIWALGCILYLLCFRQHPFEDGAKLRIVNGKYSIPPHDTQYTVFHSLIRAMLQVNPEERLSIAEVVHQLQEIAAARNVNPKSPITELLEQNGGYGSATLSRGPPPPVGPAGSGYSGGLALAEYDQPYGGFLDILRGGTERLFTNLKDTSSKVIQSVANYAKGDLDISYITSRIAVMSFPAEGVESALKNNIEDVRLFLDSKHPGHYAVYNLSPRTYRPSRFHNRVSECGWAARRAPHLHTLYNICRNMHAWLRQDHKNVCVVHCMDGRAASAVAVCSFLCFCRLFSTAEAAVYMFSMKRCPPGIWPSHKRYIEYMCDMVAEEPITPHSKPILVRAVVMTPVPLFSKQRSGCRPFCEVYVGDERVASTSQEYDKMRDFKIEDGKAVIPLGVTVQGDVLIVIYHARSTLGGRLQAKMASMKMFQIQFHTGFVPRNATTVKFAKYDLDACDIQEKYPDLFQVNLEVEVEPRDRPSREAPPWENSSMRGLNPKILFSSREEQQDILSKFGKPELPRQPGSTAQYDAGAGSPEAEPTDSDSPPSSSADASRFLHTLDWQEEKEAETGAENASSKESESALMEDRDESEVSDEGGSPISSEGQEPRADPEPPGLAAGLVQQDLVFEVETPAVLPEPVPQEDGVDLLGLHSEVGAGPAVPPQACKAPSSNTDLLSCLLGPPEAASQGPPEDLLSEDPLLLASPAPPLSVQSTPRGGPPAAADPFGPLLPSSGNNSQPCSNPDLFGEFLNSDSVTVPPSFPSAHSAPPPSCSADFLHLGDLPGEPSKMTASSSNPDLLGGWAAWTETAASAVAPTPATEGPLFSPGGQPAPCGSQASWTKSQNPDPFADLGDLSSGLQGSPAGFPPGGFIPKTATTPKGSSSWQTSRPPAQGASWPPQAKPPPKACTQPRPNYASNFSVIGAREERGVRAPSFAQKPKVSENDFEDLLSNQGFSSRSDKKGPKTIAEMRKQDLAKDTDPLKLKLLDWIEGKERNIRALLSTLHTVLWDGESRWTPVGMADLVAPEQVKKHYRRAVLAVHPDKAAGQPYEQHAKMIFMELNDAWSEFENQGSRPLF
Chain of NT-3 growth factor receptor (Homo sapiens) (Q16288 32-839 limits assumed): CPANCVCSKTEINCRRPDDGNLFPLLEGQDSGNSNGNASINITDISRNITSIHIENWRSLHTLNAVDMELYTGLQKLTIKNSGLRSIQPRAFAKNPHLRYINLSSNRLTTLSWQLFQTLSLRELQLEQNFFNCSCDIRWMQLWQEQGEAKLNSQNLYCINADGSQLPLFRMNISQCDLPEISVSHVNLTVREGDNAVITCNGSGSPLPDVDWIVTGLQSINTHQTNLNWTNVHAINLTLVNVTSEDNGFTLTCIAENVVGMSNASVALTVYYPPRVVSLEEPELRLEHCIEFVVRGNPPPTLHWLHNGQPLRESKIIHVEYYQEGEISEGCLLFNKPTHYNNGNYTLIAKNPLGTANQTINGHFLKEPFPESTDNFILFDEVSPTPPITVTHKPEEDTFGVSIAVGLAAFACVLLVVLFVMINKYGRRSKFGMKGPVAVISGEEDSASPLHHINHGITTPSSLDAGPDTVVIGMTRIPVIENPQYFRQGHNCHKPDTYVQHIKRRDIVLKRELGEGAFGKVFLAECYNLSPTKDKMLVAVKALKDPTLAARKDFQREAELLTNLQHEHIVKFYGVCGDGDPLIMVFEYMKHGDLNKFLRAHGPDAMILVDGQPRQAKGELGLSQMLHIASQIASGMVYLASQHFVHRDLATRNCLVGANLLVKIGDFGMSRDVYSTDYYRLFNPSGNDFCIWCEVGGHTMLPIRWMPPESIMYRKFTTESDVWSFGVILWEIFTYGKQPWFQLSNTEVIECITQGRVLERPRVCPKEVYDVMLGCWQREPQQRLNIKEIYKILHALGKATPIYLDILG
Chain of Phosphatidylinositol 4-kinase beta (Homo sapiens) (Q9UBF8 2-816 limits assumed): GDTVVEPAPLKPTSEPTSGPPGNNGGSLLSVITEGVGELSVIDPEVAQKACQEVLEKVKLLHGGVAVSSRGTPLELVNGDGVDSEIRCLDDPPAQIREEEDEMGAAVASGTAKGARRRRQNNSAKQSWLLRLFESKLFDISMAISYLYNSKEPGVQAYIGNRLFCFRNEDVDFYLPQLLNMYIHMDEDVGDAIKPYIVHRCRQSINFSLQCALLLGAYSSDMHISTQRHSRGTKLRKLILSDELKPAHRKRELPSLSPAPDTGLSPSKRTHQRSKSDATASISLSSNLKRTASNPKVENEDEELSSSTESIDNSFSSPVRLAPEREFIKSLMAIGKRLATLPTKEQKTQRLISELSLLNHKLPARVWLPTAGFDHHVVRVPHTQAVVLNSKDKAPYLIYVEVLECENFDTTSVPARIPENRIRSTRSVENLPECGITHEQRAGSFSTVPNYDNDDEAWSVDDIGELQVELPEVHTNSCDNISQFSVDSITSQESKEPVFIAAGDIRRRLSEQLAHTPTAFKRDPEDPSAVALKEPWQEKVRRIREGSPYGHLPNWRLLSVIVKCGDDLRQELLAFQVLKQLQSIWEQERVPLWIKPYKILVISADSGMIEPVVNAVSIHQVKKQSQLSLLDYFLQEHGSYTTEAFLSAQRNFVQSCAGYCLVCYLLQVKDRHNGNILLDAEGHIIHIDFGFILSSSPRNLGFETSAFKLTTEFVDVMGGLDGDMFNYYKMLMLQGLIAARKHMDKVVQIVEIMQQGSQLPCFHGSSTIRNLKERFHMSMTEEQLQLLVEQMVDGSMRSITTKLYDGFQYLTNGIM

As a reminder, the inhibition is the drop in the measured response relative to a control, in per cent. Take `CCN1CCN(Cc2ccc(NC(=O)c3ccc(C)c(/C=C/c4cnc5[nH]ccc5c4OC)c3)cc2C(F)(F)F)CC1`: the inhibition in [1] is 45%; in experiment [2] it was 9.1%; in experiment [3], 15%; in experiment [4] it was 38.9%; in [5], 28.7%. Further, the percent of control in experiment [6] came out at 0%; in experiment [7] it was 2.2%; in experiment [8], 1.1%.
Usually residual activity stands for the signal under treatment as a percentage of the control signal. A high value points to much activity left. As to `CCN1CCN(Cc2ccc(NC(=O)c3ccc(C)c(Oc4ccnc5[nH]ccc45)c3)cc2C(F)(F)F)CC1`, the inhibition was found to be 0.9% in experiment [9], 31% in experiment [11], 18.3% in experiment [13] and 3.5% in experiment [14]. For the same molecule, the inhibition entry in [10] and in experiment [12] was “inactive” in each case. The residual activity in experiment [15] was determined as 1.6%; in experiment [16] it was 3.8%.
Regarding `CNc1cc(Oc2cc(C(=O)Nc3cc(N4CCN(C)CC4)cc(C(F)(F)F)c3)ccc2C)ncn1`, the inhibition in [17] was 11%; in experiment [18], -1%; in [19], -8.3%; in experiment [20], 15.3%.
